In ChEMBL document CHEMBL6127017, “Regulation of exercise ability and glycolipid metabolism by synthetic SR9009 analogues as new REV-ERB-α agonists” (Bioorg Med Chem, 2024):

How the values were obtained:
Mus musculus [1] = test: Effect on blood lipid level in high-fat diet-induced obese C57BL/6 mouse assessed as total cholesterol level at 200 mg/kg, IG for 7 days (reference value: 4.69 mmol/L); format: functional; details: time 7 day
[2] = Metabolic stability in human liver microsomes assessed as hepatic extraction ratio at 1 uM incubated upto 60 mins by LC-MS/MS analysis; format: ADME, Microsome; details: read-out: ERH
Mus musculus [3] = test: Effect on blood lipid level in high-fat diet-induced obese C57BL/6 mouse assessed as triglyceride level at 200 mg/kg, IG for 7 days (reference value: 2.07 mmol/L); format: functional; details: time 7 day
Mus musculus [4] = test: Effect on exercise tolerance in normal diet-fed C57BL/6 mouse assessed as total running distance at 200 mg/kg, IG for 3 days (reference value: 2183.20 meter); format: functional; details: time 3 day
[5] = Metabolic stability in human liver microsomes assessed as compound remaining at 1 uM measured after 15 mins in presence of NADPH/UDPGA by LC-MS/MS analysis; format: ADME, Microsome; details: read-out: Stability
[6] = Metabolic stability in human liver microsomes assessed as compound remaining at 1 uM measured after 60 mins by LC-MS/MS analysis; format: ADME, Microsome; details: read-out: Stability
[7] = Metabolic stability in human liver microsomes assessed as compound remaining at 1 uM measured immediately in presence of NADPH/UDPGA by LC-MS/MS analysis; format: ADME, Microsome; details: read-out: Stability
Mus musculus [8] = test: Effect on exercise tolerance in high-fat diet-induced obese C57BL/6 mouse assessed as total running distance at 200 mg/kg, IG for 7 days; format: functional; details: time 7 day
[9] = Metabolic stability in human liver microsomes assessed as compound remaining at 1 uM measured after 30 mins by LC-MS/MS analysis; format: ADME, Microsome; details: read-out: Stability
[10] = Agonist activity at Flag-tagged REV-ERBalpha (unknown origin) expressed in HEK293 cells co-expressing BMAL1 (unknown origin) inhibition of BMAL1 incubated for 24 hrs by Dual Glo-Luciferase assay; format: cell-based; details: Homo sapiens, HEK293, 24 h
[11] = Cytotoxicity against MDCK cells; format: toxicity, cell-based, Canis lupus familiaris; details: dog, read-out: TC50 (the source's name)
Mus musculus [12] = test: Effect on exercise tolerance in normal diet-fed C57BL/6 mouse assessed as total running time at 200 mg/kg, IG for 3 days (reference value: 7002.00 sec); format: functional; details: time 3 day
[13] = Metabolic stability in human liver microsomes assessed as compound remaining at 1 uM measured immediately by LC-MS/MS analysis; format: ADME, Microsome; details: read-out: Stability
Mus musculus [14] = test: Effect on exercise tolerance in high-fat diet-induced obese C57BL/6 mouse assessed as total running time at 200 mg/kg, IG for 7 days (reference value: 2954.50 sec); format: functional; details: time 7 day
[15] = Metabolic stability in human liver microsomes assessed as compound remaining at 1 uM measured after 45 mins in presence of NADPH/UDPGA by LC-MS/MS analysis; format: ADME, Microsome; details: read-out: Stability
[16] = Metabolic stability in human liver microsomes assessed as compound remaining at 1 uM measured after 15 mins by LC-MS/MS analysis; format: ADME, Microsome; details: read-out: Stability
[17] = Metabolic stability in human liver microsomes assessed as half life at 1 uM incubated upto 60 mins by LC-MS/MS analysis; format: ADME, Microsome
Mus musculus [18] = test: Effect on blood lipid level in high-fat diet-induced obese C57BL/6 mouse assessed as decrease in blood glucose level at 200 mg/kg, IG for 7 days (reference value: 10.77 mmol/L); format: functional; details: time 7 day
[19] = Metabolic stability in human liver microsomes assessed as compound remaining at 1 uM measured after 30 mins in presence of NADPH/UDPGA by LC-MS/MS analysis; format: ADME, Microsome; details: read-out: Stability
[20] = Metabolic stability in human liver microsomes assessed as compound remaining at 1 uM measured after 60 mins in presence of NADPH/UDPGA by LC-MS/MS analysis; format: ADME, Microsome; details: read-out: Stability
[21] = Metabolic stability in human liver microsomes assessed as compound remaining at 1 uM measured after 45 mins by LC-MS/MS analysis; format: ADME, Microsome; details: read-out: Stability
[22] = Metabolic stability in human liver microsomes assessed as intrinsic clearance at 1 uM incubated upto 60 mins by LC-MS/MS analysis; format: ADME, Microsome; details: read-out: CLH
HEK293 = test: Agonist activity at Flag-tagged REV-ERBalpha (unknown origin) expressed in HEK293 cells co-expressing BMAL1 (unknown origin) assessed as relative strength index by measuring ratio of inhibitory rate of BMAL1 incubated for 24 hrs by Dual Glo-Luciferase assay relative to SR9009; format: cell-based; details: Homo sapiens

## CCOC(=O)N1CCC(CN(Cc2ccc(Cl)cc2)Cc2ccc([N+](=O)[O-])s2)C1 (stereo not drawn) [SR9009]
Mus musculus [1]
  Activity: 4.03 mmol/L
[2]
  hepatic extraction ratio at 1 h, 1 µM: 0.97
Mus musculus [3]
  Activity: 1.07 mmol/L
Mus musculus [4]
  Activity: 3121.42 m
[5]
  remaining at 0.25 h, 1 µM: 0.94%
[6]
  remaining at 1 h, 1 µM: 103%
[7]
  remaining at 0 min, 1 µM: 100%
Mus musculus [8]
  Activity: 1177.69 m
[9]
  remaining at 0.5 h, 1 µM: 98.5%
[10]
  EC50: 8.57 µM
[11]
  CC50: 38.5 µM
Mus musculus [12]
  Time: 9908.5 s
[13]
  remaining at 0 min, 1 µM: 100%
Mus musculus [14]
  Time: 5428.38 s
[15]
  remaining at 0.75 h, 1 µM: 0.08%
[16]
  remaining at 0.25 h, 1 µM: 85.6%
[17]
  half-life at 1 µM: 2.23 min
Mus musculus [18]
  Activity: 9.46 mmol/L
[19]
  remaining at 0.5 h, 1 µM: 0.04%
[20]
  remaining at 1 h, 1 µM: 0.06%
[21]
  remaining at 0.75 h, 1 µM: 85.6%
[22]
  microsomal CLint at 1 µM: 622 µL/min/mg

## O=C(C1CC1)N1CCC(CN(Cc2ccc([N+](=O)[O-])s2)Cc2c(F)cccc2Cl)C1 (stereo not drawn)
HEK293
  Ratio: 30.2%

## O=C(NS(=O)(=O)N1CCC(CN(Cc2ccc(Cl)cc2)Cc2ccc([N+](=O)[O-])s2)C1)OCC1CC1 (stereo not drawn)
HEK293; filed as agonist
  Ratio: 63%

## O=C(c1ccc(Br)o1)N1CCC(CN(Cc2ccc(Cl)cc2)Cc2ccc([N+](=O)[O-])s2)C1 (stereo not drawn)
Mus musculus [8]
  Activity: 797.96 m
[10]
  EC50: 8.29 µM
Mus musculus [14]
  Time: 4130 s
HEK293; filed as agonist
  Ratio: 120%

## O=C(C1CC1)N1CCC(CN(Cc2cc(Cl)cc(Cl)c2)Cc2ccc([N+](=O)[O-])s2)C1 (stereo not drawn)
[11]
  CC50: 12.8 µM
HEK293; filed as agonist
  Ratio: 64.7%

## O=C(Cc1cccs1)N1CCC(CN(Cc2ccc(Cl)cc2)Cc2ccc([N+](=O)[O-])s2)C1 (stereo not drawn)
Mus musculus [8]
  Activity: 686.85 m
[10]
  EC50: 8.88 µM
Mus musculus [14]
  Time: 3726.88 s
HEK293; filed as agonist
  Ratio: 121%

## O=C(C1CC1)N1CCC(CN(Cc2cccc(Cl)c2)Cc2ccc([N+](=O)[O-])s2)C1 (stereo not drawn)
[11]
  CC50: 22.2 µM
HEK293; filed as agonist
  Ratio: 51%

## O=C(C1CC1)N1CCC(CN(Cc2cccc(Br)c2)Cc2ccc([N+](=O)[O-])s2)C1 (stereo not drawn)
[11]
  CC50: 15.4 µM
HEK293; filed as agonist
  Ratio: 89.8%

## O=C(C1CCC1)N1CCC(CN(Cc2ccc(Cl)cc2)Cc2ccc([N+](=O)[O-])s2)C1 (stereo not drawn)
Mus musculus [8]
  Activity: 572.8 m
[10]
  EC50: 9.21 µM
Mus musculus [14]
  Time: 3159 s
HEK293; filed as agonist
  Ratio: 116%

## C=CC(=O)N1CCC(CN(Cc2ccc(F)cc2)Cc2ccc([N+](=O)[O-])s2)C1 (stereo not drawn)
HEK293; filed as agonist
  Ratio: 61.2%

## COc1ccc(CN(Cc2ccc([N+](=O)[O-])s2)CC2CCN(C(=O)C3CC3)C2)cc1OC (stereo not drawn)
[11]
  CC50: 32 µM
HEK293; filed as agonist
  Ratio: 43.4%

## O=C(C1CC1)N1CCC(CN(Cc2ccc3c(c2)OCO3)Cc2ccc([N+](=O)[O-])s2)C1 (stereo not drawn)
[11]
  CC50: 15.4 µM
HEK293; filed as agonist
  Ratio: 70.7%

## O=C(C1CC1)N1CCC(CN(Cc2ccc([N+](=O)[O-])s2)Cc2ccc(F)cc2Cl)C1 (stereo not drawn)
[10]
  EC50: 8.31 µM
[11]
  CC50: 38.5 µM
HEK293; filed as agonist
  Ratio: 89.4%

## O=C(c1ccco1)N1CCC(CN(Cc2ccc(Cl)cc2)Cc2ccc([N+](=O)[O-])s2)C1 (stereo not drawn)
Mus musculus [8]
  Activity: 836.67 m
[10]
  EC50: 7.15 µM
Mus musculus [14]
  Time: 4165.38 s
HEK293; filed as agonist
  Ratio: 126%

## O=C(C1CC1)N1CCC(CN(Cc2ccc([N+](=O)[O-])s2)Cc2ccc(F)cc2F)C1 (stereo not drawn)
Mus musculus [1]
  Activity: 3.83 mmol/L
[2]
  hepatic extraction ratio at 1 h, 1 µM: 0.97
Mus musculus [3]
  Activity: 1.04 mmol/L
Mus musculus [4]
  Activity: 2843.74 m
[5]
  remaining at 0.25 h, 1 µM: 1.1%
[6]
  remaining at 1 h, 1 µM: 108%
[7]
  remaining at 0 min, 1 µM: 100%
Mus musculus [8]
  Activity: 1042.52 m
[9]
  remaining at 0.5 h, 1 µM: 103%
[10]
  EC50: 4.93 µM
[11]
  CC50: 38.5 µM
Mus musculus [12]
  Time: 9087.88 s
[13]
  remaining at 0 min, 1 µM: 100%
Mus musculus [14]
  Time: 5805 s
HEK293; filed as agonist
  Ratio: 98.2%
[15]
  remaining at 0.75 h, 1 µM: 0.16%
[16]
  remaining at 0.25 h, 1 µM: 106%
[17]
  half-life at 1 µM: 2.3 min
Mus musculus [18]
  Activity: 6.79 mmol/L
[19]
  remaining at 0.5 h, 1 µM: 0.23%
[20]
  remaining at 1 h, 1 µM: 0.07%
[21]
  remaining at 0.75 h, 1 µM: 105%
[22]
  microsomal CLint at 1 µM: 601 µL/min/mg

## COc1ccccc1CN(Cc1ccc([N+](=O)[O-])s1)CC1CCN(C(=O)C2CC2)C1 (stereo not drawn)
[11]
  CC50: 38.5 µM
HEK293
  Ratio: 5.77%

## O=C(NS(=O)(=O)N1CCC(CN(Cc2ccc(Cl)cc2)Cc2ccc([N+](=O)[O-])s2)C1)OCC1CCCC1 (stereo not drawn)
HEK293
  Ratio: 34.3%

## O=C(CC1CC1)N1CCC(CN(Cc2ccc(Cl)cc2)Cc2ccc([N+](=O)[O-])s2)C1 (stereo not drawn)
HEK293; filed as agonist
  Ratio: 73.2%

## CC(F)C(=O)N1CCC(CN(Cc2ccc(Cl)cc2)Cc2ccc([N+](=O)[O-])s2)C1 (stereo not drawn)
HEK293; filed as agonist
  Ratio: 85.4%

## O=C(C1CC1)N1CCC(CN(Cc2ccc(Cl)c(Cl)c2)Cc2ccc([N+](=O)[O-])s2)C1 (stereo not drawn)
Mus musculus [1]
  Activity: 4.5 mmol/L
[2]
  hepatic extraction ratio at 1 h, 1 µM: 0.96
Mus musculus [3]
  Activity: 1.12 mmol/L
Mus musculus [4]
  Activity: 3115.39 m
[5]
  remaining at 0.25 h, 1 µM: 4.6%
[6]
  remaining at 1 h, 1 µM: 90.1%
[7]
  remaining at 0 min, 1 µM: 100%
Mus musculus [8]
  Activity: 1061.4 m
[9]
  remaining at 0.5 h, 1 µM: 108%
[10]
  EC50: 5.99 µM
[11]
  CC50: 10.7 µM
Mus musculus [12]
  Time: 10034.25 s
[13]
  remaining at 0 min, 1 µM: 100%
Mus musculus [14]
  Time: 5011.38 s
HEK293; filed as agonist
  Ratio: 84.8%
[15]
  remaining at 0.75 h, 1 µM: 0.3%
[16]
  remaining at 0.25 h, 1 µM: 93.2%
[17]
  half-life at 1 µM: 3.37 min
Mus musculus [18]
  Activity: 6.82 mmol/L
[19]
  remaining at 0.5 h, 1 µM: 0.91%
[20]
  remaining at 1 h, 1 µM: 0.15%
[21]
  remaining at 0.75 h, 1 µM: 93.3%
[22]
  microsomal CLint at 1 µM: 411 µL/min/mg

## COc1cccc(CN(Cc2ccc([N+](=O)[O-])s2)CC2CCN(C(=O)C3CC3)C2)c1 (stereo not drawn)
[11]
  CC50: 15.4 µM
HEK293; filed as agonist
  Ratio: 64.5%

## O=C(C1CC1)N1CCC(CN(Cc2ccc(Cl)cc2)Cc2ccc([N+](=O)[O-])s2)C1 (stereo not drawn)
HEK293; filed as agonist
  Ratio: 55%

## C=CC(=O)N1CCC(CN(Cc2ccc(Cl)cc2)Cc2ccc([N+](=O)[O-])s2)C1 (stereo not drawn)
Mus musculus [8]
  Activity: 910.9 m
[10]
  EC50: 8.65 µM
Mus musculus [14]
  Time: 4516.75 s
HEK293; filed as agonist
  Ratio: 125%

## CC1CCC(N(Cc2ccc([N+](=O)[O-])s2)CC2CCN(C(=O)OC(C)(C)C)C2)CC1 (stereo not drawn)
HEK293
  Ratio: 26.8%
